What all share (format): in vivo, mice
Test [1] has as its system DCX+ immature granule cells. The experiment in a line: DCX immunohistochemistry: number, dendritic morphology and Sholl analysis of immature granule cells. The procedure:
(§1) Immunohistochemistry and confocal imaging. Mice were anesthetized with ketamine/xylazine (100 and 7 mg/kg, respectively) and transcardially perfused (cold saline, followed by 4% cold paraformaldehyde in PBS). […] Immunohistochemistry was performed in the following steps: 2 h incubation in 1:1 formamide/2×SSC at 65° C., 5 min rinse in 2×SSC, 30 min incubation in 2N HCl at 37° C., and 10 min rinse in 0.1M boric acid, pH 8.5, 2 h incubation in 0.1M PBS with 0.3% Triton X-100, and 5% normal donkey serum. Sections were then incubated overnight at 4° C. in primary antibodies for doublecortin (goat; 1:500; Santa Cruz Biotechnology, Santa Cruz, Calif.), bromodeoxyuridine (BrdU; rat; 1:100; Serotec, Oxford, UK), and neuronal-specific nuclear protein (NeuN) (mouse; 1:500; Chemicon, Temecula, Calif.). Biotinylated or fluorescent secondary antibodies were used. All secondary antibodies were purchased from Jackson ImmunoResearch (West Grove, Pa.). DCX staining for Sholl analysis was done as follows: sections were rinsed in PBS, treated with 1% H2O2 in 1:1 PBS and methanol for 15 min to quench endogenous peroxidase activity (and to enhance dendritic staining), incubated in 10% normal donkey serum and 0.3% Triton X-100 for 30 min, and then incubated overnight at 4° C. in primary antibody for doublecortin. After secondary antibody incubation, sections were developed using Vector ABC kit and DAB kit. Bright-field images were taken with a Zeiss (Oberkochen, Germany) Axioplan-2 upright microscope. Stereological procedure was used to quantify labeled cells (Malberg et al., 2000 ? ). All cell counting for triple-stained sections were done using a Zeiss LSM 510 META confocal microscope.
Sholl analysis. DCX-positive (DCX^+) granule cells with tertiary, relatively untruncated dendritic branches or BrdU/DCX double-positive cells (one DCX^+ cell was traced for each […] hippocampal slice; n=10-12 cells per brain for DAB-stained sections; n=4-8 cells per brain for fluorescent staining, 5 mice per group) were traced using camera lucida at 40× magnification (Neurolucida; MicroBrightField, Williston, Vt.). Adult SvEvTac129 mice (16-20 weeks old) were used to obtain sparsely labeled DCX^+ cells. DCX immunohistochemistry was done to maximize the labeling of dendrites (see above methods). Sholl analysis for dendritic complexity was performed using the accompanying software (NeuroExplorer; MicroBrightField), calculating dendritic complexity including dendritic length and number of intersections (branch points). All samples were number coded, and analysis was done blind to treatment.
Next, the DCX^+ cells were subcategorized according to their dendritic morphology: (1) DCX^+ cells with no tertiary dendritic processes (FIG. 2A), and (2) DCX^+ cells with complex, tertiary dendrites (FIG. 2B). […] The results are mean±SEM of DCX^+ cells with tertiary branches.
Double fluorescent immunohistochemistry for BrdU and DCX were performed on hippocampal sections. BrdU cells that were also DCX' were identified and then Sholl analysis on the double-positive cells was performed (FIG. 3 D-G).

The test system of the next test is newborn granule cells. The experiment in a line: Survival and maturation of newborn granule cells (BrdU/DCX/NeuN triple staining). Here is the method:
Immunohistochemistry and confocal imaging. Mice were anesthetized with ketamine/xylazine (100 and 7 mg/kg, respectively) and transcardially perfused (cold saline, followed by 4% cold paraformaldehyde in PBS). […] Serial sections were cut through the entire hippocampus (Franklin and Paxinos, 1997) using a cryostat and stored in PBS. Immunohistochemistry was performed in the following steps: 2 h incubation in 1:1 formamide/2×SSC at 65° C., 5 min rinse in 2×SSC, 30 min incubation in 2N HCl at 37° C., and 10 min rinse in 0.1M boric acid, pH 8.5, 2 h incubation in 0.1M PBS with 0.3% Triton X-100, and 5% normal donkey serum. Sections were then incubated overnight at 4° C. in primary antibodies for doublecortin (goat; 1:500; Santa Cruz Biotechnology, Santa Cruz, Calif.), bromodeoxyuridine (BrdU; rat; 1:100; Serotec, Oxford, UK), and neuronal-specific nuclear protein (NeuN) (mouse; 1:500; Chemicon, Temecula, Calif.). Biotinylated or fluorescent secondary antibodies were used. All secondary antibodies were purchased from Jackson ImmunoResearch (West Grove, Pa.). DCX staining for Sholl analysis was done as follows: sections were rinsed in PBS, treated with 1% H2O2 in 1:1 PBS and methanol for 15 min to quench endogenous peroxidase activity (and to enhance dendritic staining), incubated in 10% normal donkey serum and 0.3% Triton X-100 for 30 min, and then incubated overnight at 4° C. in primary antibody for doublecortin. After secondary antibody incubation, sections were developed using Vector ABC kit and DAB kit. Bright-field images were taken with a Zeiss (Oberkochen, Germany) Axioplan-2 upright microscope. Stereological procedure was used to quantify labeled cells (Malberg et al., 2000 ? ). All cell counting for triple-stained sections were done using a Zeiss LSM 510 META confocal microscope.
As depicted in FIG. 4A, BrdU (75 mg/kg) was given four times over 8 h on day 0 to achieve maximum labeling of proliferating progenitors over a restricted time window. […] Hippocampal sections were triple stained for BrdU, DCX, and NeuN (FIG. 4B,C). Image acquisition and cell counting were performed using a Zeiss LSM META 510 confocal microscopy.

The test system of test [2] is proliferating neural progenitors. Nature of the test: BrdU labelling of cell proliferation in the dentate gyrus. Here is the method:
as §1, with “After secondary antibody incubation, sections were developed using Vector ABC kit and DAB kit. Bright-field images were taken with a Zeiss (Oberkochen, Germany) Axioplan-2 upright microscope.” left out, “All cell counting for triple-stained sections were done using a Zeiss LSM 510 META confocal microscope.” left out
On the technique in general: Uptake of a labelled nucleoside into DNA is a usual measure of proliferation.

Where [3] appears, read: after 3 weeks of fluoxetine, mean±SEM.

Structures are written as SMILES.

On to `CNCCC(Oc1ccc(C(F)(F)F)cc1)c1ccccc1` (stereo not shown) [fluoxetine], for which, in test [1] (chronic (28 d)), the “dendritic length of DCX+ cells (Sholl analysis)” value is given as “increased”, the “number of DCX+ cells with tertiary dendrites” value is listed as “significantly increased” and the “number of intersections of DCX+ cells (Sholl analysis)” value is “increased”. Moreover, in test [1] (three weeks of fluoxetine), the “dendritic length in 3-week-old granule cells (BrdU/DCX double-positive)” value is recorded as “enhanced” and the “number of intersections in 3-week-old granule cells (BrdU/DCX double-positive)” value was “enhanced”. Also, in the test on newborn granule cells (3 and 4 weeks of fluoxetine), the “number of BrdU+NeuN+DCX+ cells” value is reported as “did not have an effect”; the “number of cells expressing both BrdU and NeuN” value is “also increased”; the “pool of mature BrdU+NeuN+DCX− cells” value is “significantly increased”. The “total number of BrdU+ cells in the GCL (survival)” value in the test with newborn granule cells (3 and 4 weeks of fluoxetine begun 24 h after BrdU) is “significantly increased”. Further, in the test with newborn granule cells (5 d of fluoxetine), the “proportion of BrdU cells that are NeuN+” value is recorded as “did not change” and the “transition of BrdU immature cells from DCX+NeuN− stage to DCX+NeuN+ stage” value is listed as “did not change”. In the test with newborn granule cells (setting [3]), the “proportion of BrdU+NeuN+ cells that ceased to express DCX” value stood at 39.24±1.78 and the “proportion of BrdU+NeuN+ cells that express DCX” value was 51.64±3.71%. The “survival of immature neurons as measured by BrdU” value in the test with newborn granule cells (subchronic, 5 d) was “did not change”. The “number of BrdU cells in the granule cell layer (GCL)” value in test [2] (chronic (28 d) fluoxetine 18 mg/kg/d vs vehicle) was “increased”. Also, the “number of BrdU+ cells” value in test [2] (sham animals of the irradiation experiment, 28 d of fluoxetine) is “increase”.

For the origin of these results see patent US20110296540A1, “ASSAY FOR SCREENING ANTIDEPRESSANTS” (priority 2008, published 2011).
